Source: EP0463592A1, “2,4- and 2,5-substituted pyridine-N-oxides, processes for their preparation and for their utilization” (HOECHST AKTIENGESELLSCHAFT, priority 1990, dated 1992)

System: durch CCl4 induzierte Leberfibrose in Ratten
Test: Effect of prolyl hydroxylase inhibitors on CCl4-induced liver fibrosis in rats: serum bilirubin, bile acids, gamma GT
Assay type: in vivo
Conditions: rat serum, 20 mg/kg total daily oral dose; for Bile acids / Bilirubin / Gamma GT: CCl4 then compound, mean ± standard deviation; for Bile acids: prozentuale Verbesserung gegenüber einer ausschließlichen CCl4-Behandlung / Bilirubin: prozentuale Verbesserung gegenüber einer ausschließlichen CCl4-Behandlung / Gamma GT: prozentuale Verbesserung gegenüber einer ausschließlichen CCl4-Behandlung: value in brackets
Excerpt: Um die effiziente Inhibitierung der Prolin-hydroxylase und der Lysin-hydroxylase durch die Verbindungen gemäß der Erfindung zu zeigen, werden die Konzentrationen von Bilirubin, Bile-Säuren und Gamma GT im Serum von • a) unbehandelten Ratten (Kontrolle), • b) mit CCl₄ behandelten Ratten, • c) Ratten, denen zuerst CCl₄ und anschließend eine Verbindung gemäß der Erfindung gegeben wurden, gemessen. (Die Methode ist beschrieben von Rouiller, C., Experimental toxic injury of the liver; in The Liver, C. Rouiller, Vol. 2, Seiten 335-476, New York, Academic Press 1964).
Die Ergebnisse sind in Tabelle 1 zusammengefaßt.

Structure (SMILES)	Bile acids	Bilirubin	Gamma GT	Bile acids: prozentuale Verbesserung gegenüber einer ausschließlichen CCl4-Behandlung [%]	Bilirubin: prozentuale Verbesserung gegenüber einer ausschließlichen CCl4-Behandlung [%]	Gamma GT: prozentuale Verbesserung gegenüber einer ausschließlichen CCl4-Behandlung [%]
COCCNC(=O)c1cc[n+]([O-])c(C(=O)NCCOC)c1 [Beispiel 1, Pyridin-2,4-dicarbonsäure-di-N,N'-(2-methoxyethyl)amid-N-oxid]	97 ± 76	6,30 ± 5,4 µm	4,3 ± 3,1 U/L	0	0	27
COCCCNC(=O)c1cc[n+]([O-])c(C(=O)NCCCOC)c1 [Beispiel 2, Pyridin-2,4-dicarbonsäure-di-N,N'-(3-methoxypropyl)amid-N-oxid]	71 ± 42	2,90 ± 0,94 µm	3,3 ± 2,2 U/L	18	65	59
